In one assay the test system is Pseudomonas aeruginosa. As to the kind of experiment: Antibacterial activity against Pseudomonas aeruginosa ATCC 27853 assessed as inhibition of bacterial growth by broth microdilution method. It is filed as functional.
The next assay concerns Candida albicans. Kind of assay: Antifungal activity against Candidia albicans ATCC 10231 assessed as inhibition of fungal growth by broth microdilution method. It counts as functional.
For assay [1], the system named is Staphylococcus aureus. As to the kind of experiment: Antibacterial activity against Staphylococcus aureus ATCC 25923 assessed as inhibition of bacterial growth by broth microdilution method. It is filed as functional.
Another assay has as its system Trichophyton rubrum. As to the kind of experiment: Antifungal activity against Trichophyton rubrum FF5 assessed as inhibition of fungal growth by broth microdilution method. It is filed as functional.
A short description of assay [2]: Inhibition of Multidrug resistance efflux pump in Staphylococcus aureus 272123 assessed as relative fluorescence index using ethidium bromide as substrate at 50 uM by fluorescence based analysis.
For assay [3], the system named is Staphylococcus aureus. As to the kind of experiment: Inhibition of biofilm formation in Staphylococcus aureus 272123 at 100 uM incubated for 48 hrs by crystal violet staining based analysis. It counts as functional.
The test system of another assay is Aspergillus fumigatus. As to the kind of experiment: Antifungal activity against Aspergillus fumigatus ATCC 204305 assessed as inhibition of fungal growth by broth microdilution method. It counts as functional.
Assay [4] deals with Escherichia coli. Kind of assay: Antimicrobial adjuvant activity against ESBL-producing Escherichia coli SA/2 assessed as potentiation of cefotaxime-induced antibacterial activity by measuring fold reduction in cefotaxime MIC at 64 ug/ml by broth microdilution method. It counts as functional. Conditions: dose 64 µg/ml.
Assay [5] is described as follows: Inhibition of quorum sensing system in Chromobacterium violaceum wild type 85 assessed as reduction in pigment production incubated for 24 to 48 hrs. Conditions: time 24-48 hrs.
Another assay deals with Salmonella typhimurium. As to the kind of experiment: Antibacterial activity against Salmonella enterica serovar typhimurium SL1344 (SE03) assessed as inhibition of bacterial growth by broth microdilution method. It counts as functional, Salmonella enterica subsp. enterica serovar Typhimurium.
Assay [6] relates to Salmonella enterica subsp. enterica serovar Typhimurium. Kind of assay: Inhibition of Multidrug resistance efflux pump in Salmonella enterica serovar typhimurium SL1344 (SE03) assessed as relative fluorescence index using ethidium bromide as substrate at 50 uM by fluorescence based analysis.
Another assay concerns Serratia marcescens. Kind of assay: Inhibition of quorum sensing system in Serratia marcescens AS-1 assessed as reduction in pigment production incubated for 24 to 48 hrs. Conditions: time 24-48 hrs.
Assay [7] has as its system Enterococcus faecalis. Kind of assay: Antibacterial activity against Enterococcus faecalis ATCC 29212 assessed as inhibition of bacterial growth by broth microdilution method. It counts as functional.
Assay [8] concerns Staphylococcus aureus. As to the kind of experiment: Inhibition of biofilm formation in Staphylococcus aureus ATCC 25923 at 100 uM incubated for 48 hrs by crystal violet staining based analysis. It counts as functional.
A short description of assay [9]: Inhibition of quorum sensing system in Chromobacterium violaceum CV026 assessed as reduction in pigment production co-cultured with Sphingomonas paucimobilis Ezf 10-17 for 24 to 48 hrs. The conditions noted are these: time 24-48 hrs.
Assay [10] deals with Staphylococcus aureus. As to the kind of experiment: Antibacterial activity against methicillin and ofloxacin-resistant Staphylococcus aureus 272123 assessed as inhibition of bacterial growth by broth microdilution method. It counts as functional.
Assay [11] relates to Escherichia coli. Kind of assay: Antibacterial activity against Escherichia coli ATCC 25922 assessed as inhibition of bacterial growth by broth microdilution method. It counts as functional.
The test system of assay [12] is Enterococcus faecalis. As to the kind of experiment: Antimicrobial adjuvant activity against Enterococcus faecalis B3/101 assessed as potentiation of vancomycin-induced antibacterial activity by measuring fold reduction in vancomycin MIC at 64 ug/ml by broth microdilution method. The conditions noted are these: dose 64 µg/ml. It counts as functional.

Take `COc1ccc(/C=C2\COC/C(=C\c3ccc(OC)c(OC)c3)C2=O)cc1OC`: the MIC is greater than 64 µg/mL in the assay on Pseudomonas aeruginosa; greater than 128 µg/mL in the assay on Candida albicans; greater than 64 µg/mL in the assay on Staphylococcus aureus [1]; greater than 128 µg/mL with Trichophyton rubrum; greater than 128 µg/mL with Aspergillus fumigatus; greater than 64 µg/mL with Salmonella typhimurium. The MIC in the assay on Enterococcus faecalis [7], in the assay with Staphylococcus aureus [10] and with Escherichia coli [11] was greater than 64 µg/mL each time. Besides, the RFU in assay [2] was 2.47; in [6] it was -0.02. The inhibition at 100 µM in the assay with Staphylococcus aureus [3] and in the assay on Staphylococcus aureus [8] was 0% in each case. Besides, the “fold change (FC)” value in the assay with Escherichia coli [4] is recorded as 2. The Activity (in assay [5]; in the assay on Serratia marcescens; in assay [9]) was 0 mm each time.

On to `O=C1/C(=C/c2ccc(Br)cc2)COC/C1=C\c1ccc(Br)cc1`, for which the MIC in the assay with Pseudomonas aeruginosa is greater than 64 µg/mL; with Candida albicans, greater than 128 µg/mL; in the assay with Staphylococcus aureus [1], greater than 64 µg/mL; in the assay with Trichophyton rubrum, greater than 128 µg/mL; in the assay with Aspergillus fumigatus, greater than 128 µg/mL; in the assay on Salmonella typhimurium it was greater than 64 µg/mL. For the same molecule, the MIC with Enterococcus faecalis [7], in the assay with Staphylococcus aureus [10] and in the assay with Escherichia coli [11] was greater than 64 µg/mL throughout. Also, the RFU in assay [2] was 0.53; in [6] it was 0.06. Also, the results for the inhibition at 100 µM in the assay with Staphylococcus aureus [3] and with Staphylococcus aureus [8] were 51.2% and 0%, respectively. For the same molecule, the “fold change (FC)” value in the assay with Escherichia coli [4] was found to be 8. Moreover, the Activity (in [5]; with Serratia marcescens; in [9]) was 0 mm each time.

Turning to `COc1ccccc1/C=C1\CCC/C(=C\c2ccccc2OC)C1=O`, the MIC in the assay on Pseudomonas aeruginosa was greater than 64 µg/mL; in the assay on Candida albicans, greater than 128 µg/mL; in the assay on Staphylococcus aureus [1], greater than 64 µg/mL; with Trichophyton rubrum, greater than 128 µg/mL; in the assay with Aspergillus fumigatus, greater than 128 µg/mL; in the assay on Salmonella typhimurium, greater than 64 µg/mL. For the same molecule, the MIC in the assay with Enterococcus faecalis [7], with Staphylococcus aureus [10] and in the assay with Escherichia coli [11] was greater than 64 µg/mL each time. In addition, the values for the RFU in assay [2] and in assay [6] were 0.48 and -0.31, respectively. Further, the results for the inhibition at 100 µM with Staphylococcus aureus [3] and with Staphylococcus aureus [8] were 65.9% and 0%, respectively. For the same molecule, the Activity (in assay [5]; with Serratia marcescens; in [9]) was 0 mm in each case. Also, the “fold change (FC)” value with Enterococcus faecalis [12] stood at 2.

For `CC(CN1c2ccccc2Sc2ccccc21)N(C)C` (stereo not given), the Activity in [5] came to 40 mm; in the assay on Serratia marcescens, 18 mm; in assay [9], 41 mm.

On to `COc1cc(OC)c(OC)cc1/C=C1\Cc2ccccc2C1=O`, for which the MIC in the assay on Pseudomonas aeruginosa was greater than 64 µg/mL; in the assay on Candida albicans, greater than 128 µg/mL; in the assay on Staphylococcus aureus [1], greater than 64 µg/mL; in the assay on Trichophyton rubrum, greater than 128 µg/mL; with Aspergillus fumigatus it was greater than 128 µg/mL; with Salmonella typhimurium, greater than 64 µg/mL. In addition, the MIC with Enterococcus faecalis [7], with Staphylococcus aureus [10] and in the assay with Escherichia coli [11] was greater than 64 µg/mL each time. The RFU in [2] was -0.34; in [6], 0.11. Besides, the “fold change (FC)” value in the assay with Escherichia coli [4] and in the assay on Enterococcus faecalis [12] was 2 each time.

Consider `Cc1cccc(/C=C2\COC/C(=C\c3cccc(C)c3)C2=O)c1`, for which the MIC in the assay with Pseudomonas aeruginosa was greater than 64 µg/mL; in the assay on Candida albicans it was greater than 128 µg/mL; in the assay on Staphylococcus aureus [1], greater than 64 µg/mL; with Trichophyton rubrum it was greater than 128 µg/mL; in the assay with Aspergillus fumigatus, greater than 128 µg/mL; in the assay with Salmonella typhimurium, greater than 64 µg/mL. Also, the MIC in the assay on Enterococcus faecalis [7], with Staphylococcus aureus [10] and in the assay with Escherichia coli [11] was greater than 64 µg/mL each time. The RFU is 0.11 in assay [2] and -0.12 in [6]. For the same molecule, the “fold change (FC)” value with Escherichia coli [4] and in the assay on Enterococcus faecalis [12] was 2 in each case.

The record behind these values is ChEMBL document CHEMBL5143672, “New diarylpentanoids and chalcones as potential antimicrobial adjuvants” (2022).
